One block for each compound: values may come before it.
Assay: solvent given as SMILES

SMILES: O=c1c2cc(Br)ccc2nc2n1[B-](F)(F)[n+]1ccccc1-2
- absorption maximum (in CC#N): 343 nm
- absorption maximum (in ClCCl): 358 nm

SMILES: N#Cc1nc2c3ccc(-c4ccc(N(c5ccccc5)c5ccccc5)cc4)cc3c3cc(-c4ccc(N(c5ccccc5)c5ccccc5)cc4)ccc3c2nc1C#N
- absorption maximum (in Cc1ccccc1): 460 nm

SMILES: CNC1=C2C=CC=[N+]2[B-](F)(F)n2cccc21
- absorption maximum (in C1CCCCC1): 418.5 nm
- absorption maximum (in CC(C)=O): 395.5 nm
- absorption maximum (in CCO): 397 nm
- absorption maximum (in CCOC(C)=O): 398.5 nm
- absorption maximum (in CO): 394.5 nm
- absorption maximum (in OCC(F)(F)F): 393 nm

SMILES: C(=C\c1ccnc2ccccc12)/c1ccc(/C=C/c2ccnc3ccccc23)cc1
- absorption maximum (in C1CCCCC1): 364 nm
- absorption maximum (in C1COCCO1): 370 nm
- absorption maximum (in CC#N): 370 nm
- absorption maximum (in CC(C)=O): 371 nm
- absorption maximum (in CC(C)O): 374 nm
- absorption maximum (in CCCO): 374 nm
- absorption maximum (in CCO): 374 nm
- absorption maximum (in CN(C)C=O): 378 nm
- absorption maximum (in CO): 374 nm
- absorption maximum (in CS(C)=O): 382 nm
- absorption maximum (in ClC(Cl)Cl): 370 nm
- absorption maximum (in ClCCl): 370 nm
- absorption maximum (in OCCO): 382 nm

SMILES: Cc1nnc(-c2ccc(-n3c4ccccc4c4ccccc43)cc2)o1
- absorption maximum (in Cc1ccccc1): 340 nm

SMILES: CCCCC(CC)CN1C(=O)c2cc(Oc3ccc(C(C)(C)C)cc3)c3c4c(Cl)cc5c6c(cc(Cl)c(c7c(Oc8ccc(C(C)(C)C)cc8)cc(c2c37)C1=O)c64)C(=O)N(c1c(C(C)C)cccc1C(C)C)C5=O (stereo not given)
- absorption maximum (in Cc1ccccc1): 560 nm

SMILES: CCCCCCCCOc1ccc(C#Cc2ccc(C#Cc3ccc(OCCCCCCCC)c(OCCCCCCCC)c3)c3nc4c5ccccc5c5ccccc5c4nc23)cc1OCCCCCCCC
- absorption maximum (in C1CCOC1): 461 nm
- absorption maximum (in Cc1ccccc1): 461 nm
- absorption maximum (in ClCCl): 461 nm

SMILES: N#Cc1ccccc1N1c2ccccc2C(c2ccccc2)(c2ccccc2)c2ccccc21
- absorption maximum (in Cc1ccccc1): 356 nm

SMILES: CC1=C(c2ccc(N(C)C)cc2)C(C)=[N+]2C1=C(c1c(-c3ccccn3)nc3ccccn13)c1c(C)cc(C)n1[B-]2(F)F
- absorption maximum (in ClCCl): 538 nm

SMILES: Cc1cc(C)c(B(c2c(C)cc(C)cc2C)c2ccc3ccc4cccc5ccc2c3c45)c(C)c1
- absorption maximum (in Cc1ccccc1): 399 nm

SMILES: COc1ccc(C2=[N+]3C(=Nc4c(-c5cc(OC)c(OC)c(OC)c5)cc(-c5ccc(OC)cc5)n4[B-]3(F)F)C(c3cc(OC)c(OC)c(OC)c3)=C2)cc1
- absorption maximum (in Cc1ccccc1): 698 nm

SMILES: COc1cccc2cc(C)c3c4ccccc4n(C)c3c12
- absorption maximum (in ClCCl): 370 nm

SMILES: Fc1ccc(C2=[N+]3C(=Nc4c5ccccc5c(-c5ccc(F)cc5)n4[B-]3(F)F)c3ccccc32)cc1
- absorption maximum (in ClCCl): 713 nm

SMILES: Fc1c(F)c(-n2c3ccccc3c3ccccc32)c(F)c(F)c1/C=C/c1ccc(C(=C(c2ccccc2)c2ccccc2)c2ccccc2)cc1
- absorption maximum (in Cc1ccccc1): 367 nm

SMILES: CC(C)(C)c1ccc(-c2ccc(C(C)(C)C)cc2)cc1
- absorption maximum (in C1CCCCC1): 256 nm

SMILES: CCCCCCCCOc1cc(/C=C/c2cc(OCCCCCCCC)c(/C=C/c3cc(OCCCCCCCC)c(Br)cc3OCCCCCCCC)cc2OCCCCCCCC)c(OCCCCCCCC)cc1Br
- absorption maximum (in ClCCl): 410 nm

SMILES: CCc1c(C)[nH]c(C2=[N+]3C(=Cc4c(C)c(CC)c(/C=C/c5ccc(N(C)C)cc5)n4[B-]3(F)F)c3ccccc32)c1C
- absorption maximum (in C1CCOC1): 720 nm
- absorption maximum (in CC#N): 713 nm
- absorption maximum (in CCCCCC): 719 nm
- absorption maximum (in CO): 712 nm
- absorption maximum (in Cc1ccccc1): 730 nm
- absorption maximum (in ClCCl): 725 nm

SMILES: CC(C)(C)c1ccc2c(c1)c1cc(C(C)(C)C)ccc1n2-c1ccc(C(=O)c2ccc(-n3c4ccc(C(C)(C)C)cc4c4cc(C(C)(C)C)ccc43)nc2)cn1
- absorption maximum (in C1CCOC1): 377.31 nm
- absorption maximum (in Cc1ccccc1): 383.97 nm
- absorption maximum (in ClCCl): 382.72 nm

SMILES: CC(C)c1cccc(C(C)C)c1N1C(c2ccccc2)=Cc2ccc3ccccc3[n+]2[B-]1(F)F
- absorption maximum (in ClCCl): 447 nm

SMILES: CCCCCn1c2ccc(S(=O)(=O)O)cc2c(=O)c2cc(S(=O)(=O)O)ccc21
- absorption maximum (in CS(C)=O): 406 nm
- absorption maximum (in O): 406 nm

SMILES: O=C1c2cc(-n3c4ccccc4c4ccccc43)ccc2S(=O)(=O)c2ccc(-n3c4ccccc4c4ccccc43)cc21
- absorption maximum (in C1CCOC1): 406 nm
- absorption maximum (in CCCCCC): 406 nm
- absorption maximum (in Cc1ccccc1): 406 nm
- absorption maximum (in ClC(Cl)Cl): 406 nm
- absorption maximum (in ClCCl): 406 nm

Results, then the compound that gave them:

- absorption maximum (in ClCCl): 572 nm
SMILES: CCCCCCc1cc2c(=S)c3cc(CCCCCC)cc4c(=S)c5cc(CCCCCC)cc6c(=S)c(c1)c2n(c34)c65

- absorption maximum (in C1CCCCC1): 296 nm
SMILES: COc1ccc(C2=C(c3ccc(OC)cc3)C(C)(C)c3cc(OC)ccc32)cc1

- absorption maximum (in ClCCl): 351 nm
SMILES: CCCCn1c2c(-c3ccc(N(c4ccccc4)c4ccccc4)cc3)cc(C#N)cc2c2cc(C#N)cc(-c3ccc(N(c4ccccc4)c4ccccc4)cc3)c21

- absorption maximum (in C1CCCCC1): 348 nm
- absorption maximum (in C1COCCO1): 358 nm
- absorption maximum (in CC#N): 354 nm
- absorption maximum (in CN(C)C=O): 340 nm
- absorption maximum (in CO): 355 nm
- absorption maximum (in O): 355 nm
- absorption maximum (in OCC(O)CO): 367 nm
- absorption maximum (in OCCO): 361 nm
SMILES: COc1cc(/C=C2/SC(=O)NC2=O)ccc1O

- absorption maximum (in CC#N): 390 nm
- absorption maximum (in CO): 393 nm
- absorption maximum (in ClCCl): 395 nm
SMILES: O=C1c2ccccc2-c2c(-c3cc(Cl)ccc3O)[nH]c(=O)n21

- absorption maximum (in ClCCl): 393 nm
SMILES: O=C(NCc1ccccc1)c1sc(-c2ccc(-c3cc(C4CC4)c(C(=O)NCc4ccccc4)s3)s2)cc1C1CC1

- absorption maximum (in ClCCl): 323 nm
SMILES: c1ccc(-n2nc(-c3ccc(-c4ccc5c(c4)C(c4ccccc4)(c4ccccc4)c4ccccc4-5)cc3)nc2-c2ccccn2)cc1

- absorption maximum (in ClCCl): 680 nm
SMILES: CCOC(=O)COc1ccc(/C=C/C2=[N+]3C(=Cc4c5ccccc5c(-c5[nH]c(C)cc5C)n4[B-]3(F)F)C(C)=C2)cc1

- absorption maximum (in CCO): 330 nm
SMILES: COC(=O)C(CCCCNC(=O)CCNc1cccc2ccccc12)NC(C)=O (stereo not given)

- absorption maximum (in ClCCl): 436 nm
SMILES: CC(C)(C)c1ccc(-c2ccc(-c3ccc(N(c4ccccc4)c4ccccc4)cc3)c3nsnc23)cc1

- absorption maximum (in CS(C)=O): 316 nm
SMILES: COc1cc2sc3cc(OC)c(F)cc3c(=O)c2cc1F

- absorption maximum (in ClCCl): 518 nm
SMILES: CCCCCCOc1cc(/C=C/c2cc(OCCCCCC)c(/C=C/c3cc(OCCCCCC)c(C=C(C#N)C#N)cc3OCCCCCC)cc2OCCCCCC)c(OCCCCCC)cc1C=C(C#N)C#N

- absorption maximum (in CCO): 453 nm
SMILES: CCOC(=O)c1cc(C(=O)OCC)c2cc(N(CC)CC)ccc2n1

- absorption maximum (in CCCCCC): 445 nm
SMILES: CC(C)[Si](C#Cc1c2ccccc2c(C#C[Si](C(C)C)(C(C)C)C(C)C)c2nc3c(nc12)C1c2ccccc2C3c2ccccc21)(C(C)C)C(C)C

- absorption maximum (in C1CCOC1): 393 nm
- absorption maximum (in ClC(Cl)Cl): 394 nm
SMILES: F[Si](c1ccccc1)(c1ccccc1)c1c2ccccc2cc2ccccc12

- absorption maximum (in ClCCl): 353 nm
SMILES: Cc1nnc(-c2cc(-n3c4ccccc4c4ccccc43)c(-n3c4ccccc4c4ccccc43)cc2-c2nnc(C)o2)o1

- absorption maximum (in ClC(Cl)Cl): 412 nm
SMILES: COc1cc(C2CC(=O)Oc3c2c2nc4ccc(C)cc4nc2c2ccccc32)cc(OC)c1OC (stereo not given)

- absorption maximum (in ClCCl): 520 nm
SMILES: COc1ccc(C#Cc2c3ccccc3c(C#Cc3ccc(OC)cc3)c3cc4sc(C)cc4cc23)cc1

- absorption maximum (in C1CCCCC1): 257.4 nm
SMILES: Cc1ccc(-c2ccccc2)cc1

- absorption maximum (in ClC(Cl)Cl): 343 nm
SMILES: Cc1ccc2c(c1)c(C#N)c(C#N)c1cc(C)ccc12

- absorption maximum (in ClCCl): 385 nm
SMILES: CCCCC(CC)Cn1c2cc(C#N)ccc2c2ccc(C#Cc3ccc4ccc5c(C#Cc6ccc7c8ccc(C#N)cc8n(CC(CC)CCCC)c7c6)ccc6ccc3c4c65)cc21 (stereo not given)

- absorption maximum (in CCO): 330 nm
SMILES: COC(=O)C(NC(=O)CCNc1cccc2ccccc12)C(C)C (stereo not given)
